# Assay results taken from patent US11395492B2, “Antimicrobial and agrochemical compositions” (Myco Sciences Limited, priority 2015, dated 2022).
# Values joined by “and” are separate entries in the source; they are usually repeats but may differ in a detail not shown here. Identical values can stand only once. Like-named read-outs stand apart in the source and are kept apart here.
# Experiments:
# [1] = test system: Magnaporthe oryzae; format: cell-based; conditions: for M. oryzae fungal growth (mm): 30 min exposure, 4 days culture
# [2] = pH of diluted compositions and components; format: physicochemical
# [3] = test system: spores of B. cinerea; assay: Sporicidal assay (1) with sodium nitrite, B. cinerea; format: cell-based, Botrytis cinerea
# [4] = test system: Rhizoctonia solani; assay: Inhibition of fungal growth assay (radial growth on PDA); conditions: for IC50 (% of stock solution) on growth of R. solani: potato dextrose agar, 24 hour culture at 22° C.
# Experimental: Inhibition of fungal growth assay. The Rhizoctonia solani (R. solani) strain was isolated from sclerotia on the skin of a potato and was maintained in culture on potato dextrose agar (PDA) at room temperature (22° C.). To assess the effects of the compositions on fungal growth, 10 microliters of the test compositions diluted in sterile distilled water was placed in the wells of a 12-well tissue culture plate and 1 milliliter of PDA was added by pipette to each well. The plate was agitated to distribute the test composition evenly throughout the agar (distilled water alone was used as control) and then the agar was allowed to set. Plugs of agar containing fungal hyphae (3×3 millimeters) from an established fungal culture were cut out using a scalpel and inserted into holes cut into the centre of the agar in each well of the 12-well plate, which was then cultured at room temperature. To assess the effects of compositions on radial fungal growth, the diameter of the fungal hyphae was measured twice at a 90° angle using a ruler and the average diameter in millimeters was calculated. Concentrations of compositions required to inhibit the radial growth of R. solani by 50% (IC50) were determined graphically.
# [5] = test system: spores of F. oxysporum; assay: Sporicidal assay (1) with sodium nitrite, F. oxysporum; format: cell-based, Fusarium oxysporum f. sp. cubense
# [6] = test system: Rhizoctonia solani
# Experimental: To assess the effects of composition on fungal growth, 10 microliters of the test compositions diluted in sterile distilled water were placed in the wells of a 12-well tissue culture plate and 1 milliliter of PDA was added by pipette to each well. The plate was agitated to distribute the test composition evenly throughout the agar (distilled water alone was used as control) and then the agar was allowed to set. Plugs of agar containing fungal hyphae (3×3 millimeters) from an established fungal culture were cut out using a scalpel and inserted into holes cut into the centre of the agar in each well of the 12-well plate, which was then cultured at room temperature (22° C.). To assess the effects of compositions on radial fungal growth, the diameter the fungal hyphae was measured twice at a 90° angle using a ruler and the average diameter in millimeters was calculated. If no fungal growth could be detected by eye, the cultures were observed by phase microscopy (40×) to confirm that there was no growth (NG) as judged by visual examination.
# To assess the effects of compounds and compositions on sclerotia formation, the R. solani cultures were examined daily and radial fungal growth was measured until the cultures were confluent after which time the development of white (immature) sclerotia and mature (black pigmented) sclerotia was noted and the number of mature sclerotia was counted on day 10 of culture.
# [7] = test system: sclerotia of R. solani; assay: Scleroticidal assay with compositions and sodium nitrite; format: cell-based, Rhizoctonia solani
# Source text: Scleroticidal assay. Plugs of agar containing white immature sclerotia (3×3 millimeters) were cut from a 6 to 8 day culture of R. solani, whilst mature melanized (black) sclerotia (around 10×3 millimeters) were excised from 13-day old R. solani cultures and cut into 2×3 millimeter pieces with a scalpel. The sclerotia samples were then placed in the wells of a 96-well plate containing 75 microliters of various concentrations of sodium nitrite or sterile distilled water (DW) as control. TO start the reaction, 75 microliters of CuZn #31 (diluted in DW) was added to the wells. The plate was carefully shaken and incubated at room temperature for 10 minutes when the liquid was carefully removed and 150 microliters of CM-1 medium was added for 5 minutes to stop the reaction.
# [8] = NaNO2 0 mM, test item 0.3%, 30 min
# [9] = NaNO2 1 mM, test item 0.1%, 30 min
# [10] = NaNO2 1 mM, test item 0.3%, 30 min
# [11] = NaNO2 3 mM, test item 0.1%, 30 min
# [12] = NaNO2 3 mM, test item 0.3%, 30 min
# [13] = NaNO2 10 mM, test item 0.1%, 30 min
# [14] = NaNO2 10 mM, test item 0.3%, 30 min
# [15] = NaNO2 30 mM, test item 0.1%, 30 min
# [16] = NaNO2 30 mM, test item 0.3%, 30 min
# [17] = FIG. 3, 2 to 3 replicate experiments
# [18] = NaNO2 1 mM + DW (sodium nitrite alone)
# [19] = NaNO2 3 mM + DW (sodium nitrite alone)
# [20] = NaNO2 10 mM + DW (sodium nitrite alone)
# [21] = NaNO2 30 mM + DW (sodium nitrite alone)
compound,measurement,setting,value
"OP(O)O [Composition H3PO3, phosphorous acid]",M. oryzae fungal growth (mm),"[1]; NaNO2 0 mM, composition 1%",21 mm
same,M. oryzae fungal growth (mm),"[1]; NaNO2 10 mM, composition 0.1%",20 mm
same,"percent of control (A, B, M) used to calculate Sf","[1]; NaNO2 10 mM, composition 0.3%",38%
same,M. oryzae fungal growth (mm),"[1]; NaNO2 10 mM, composition 0.3%",13 mm
same,"percent of control (A, B, M) used to calculate Sf","[1]; NaNO2 10 mM, composition 1%",48%
same,M. oryzae fungal growth (mm),"[1]; NaNO2 10 mM, composition 1%",11 mm
same,fungicidal activity to M. oryzae,"[1]; absence of sodium nitrite, 1% of stock solution",not fungicidal
same,pH of a 1% solution in DW,[2]; 1% in distilled water,2.12
same,pH: 1% in DW + 100 mM NaNO2,[2]; 1% in distilled water with 100 mM sodium nitrite,4.22
same,"Fungal growth score, spores of B. cinerea","[3]; NaNO2 0 mM, test item 0.1%, 30 min",2
same,"Fungal growth score, spores of B. cinerea",[3]; [8],2
same,"Fungal growth score, spores of B. cinerea","[3]; NaNO2 0 mM, test item 1%, 30 min",2
same,"Fungal growth score, spores of B. cinerea",[3]; [9],2
same,"Fungal growth score, spores of B. cinerea",[3]; [10],2
same,"Fungal growth score, spores of B. cinerea","[3]; NaNO2 1 mM, test item 1%, 30 min",2
same,"Fungal growth score, spores of B. cinerea",[3]; [11],2
same,"Fungal growth score, spores of B. cinerea",[3]; [12],2
same,"Fungal growth score, spores of B. cinerea","[3]; NaNO2 3 mM, test item 1%, 30 min",1
same,"Fungal growth score, spores of B. cinerea",[3]; [13],2
same,"Fungal growth score, spores of B. cinerea",[3]; [14],2
same,"Fungal growth score, spores of B. cinerea","[3]; NaNO2 10 mM, test item 1%, 30 min",0
same,"Fungal growth score, spores of B. cinerea",[3]; [15],2
same,"Fungal growth score, spores of B. cinerea",[3]; [16],2
same,"Fungal growth score, spores of B. cinerea","[3]; NaNO2 30 mM, test item 1%, 30 min",0
same,"Fungal growth score, spores of B. cinerea","[3]; NaNO2 100 mM, test item 0.1%, 30 min",2
same,"Fungal growth score, spores of B. cinerea","[3]; NaNO2 100 mM, test item 0.3%, 30 min",1
same,"Fungal growth score, spores of B. cinerea","[3]; NaNO2 100 mM, test item 1%, 30 min",0
same,IC50 values with R. solani (fungal growth),[4],around 250 mg/L
same,IC50 (% of stock solution) on growth of R. solani,[4],0.64^+ % of stock solution
same,IC50 (% of stock solution) on growth of R. solani,[4]; listed as phosphorous acid,0.64 % of stock solution
same,"Fungal growth score, spores of F. oxysporum",[5]; [8],2
same,"Fungal growth score, spores of F. oxysporum","[5]; NaNO2 1 mM, test item 0.03%, 30 min",2
same,"Fungal growth score, spores of F. oxysporum",[5]; [9],2
same,"Fungal growth score, spores of F. oxysporum",[5]; [10],2
same,"Fungal growth score, spores of F. oxysporum","[5]; NaNO2 3 mM, test item 0.03%, 30 min",2
same,"Fungal growth score, spores of F. oxysporum",[5]; [11],2
same,"Fungal growth score, spores of F. oxysporum",[5]; [12],1
same,"Fungal growth score, spores of F. oxysporum","[5]; NaNO2 10 mM, test item 0.03%, 30 min",2
same,"Fungal growth score, spores of F. oxysporum",[5]; [13],2
same,"Fungal growth score, spores of F. oxysporum",[5]; [14],0
same,"Fungal growth score, spores of F. oxysporum","[5]; NaNO2 30 mM, test item 0.03%, 30 min",2
same,"Fungal growth score, spores of F. oxysporum",[5]; [15],1
same,"Fungal growth score, spores of F. oxysporum",[5]; [16],0
same,Day 1 growth in mm,[6]; 10 mg/L (Table 9),18 mm
same,Day black SCL 1st seen,[6]; 10 mg/L (Table 9),5
same,Day growth confluent,[6]; 10 mg/L (Table 9),2
same,Day white SCL 1st seen,[6]; 10 mg/L (Table 9),3
same,No. black SCL on day 10,[6]; 10 mg/L (Table 9),17
same,Day 1 growth in mm,[6]; 12 mg/L (Table 11),20 mm
same,Day black SCL 1st seen,[6]; 12 mg/L (Table 11),6
same,Day growth confluent,[6]; 12 mg/L (Table 11),2
same,Day white SCL 1st seen,[6]; 12 mg/L (Table 11),3
same,No. black SCL on day 10,[6]; 12 mg/L (Table 11),>20
same,Day 1 growth in mm,"[6]; 12 mg/L, adjusted to equal amounts of PO3 group (Table 10)",18 mm
same,Day black SCL 1st seen,"[6]; 12 mg/L, equal PO3 (Table 10)",6
same,Day growth confluent,"[6]; 12 mg/L, equal PO3 (Table 10)",2
same,Day white SCL 1st seen,"[6]; 12 mg/L, equal PO3 (Table 10)",3
same,No. black SCL on day 10,"[6]; 12 mg/L, equal PO3 (Table 10)",>20
same,Day 1 growth in mm,[6]; 20 mg/L (Table 9),18 mm
same,Day growth confluent,[6]; 20 mg/L (Table 9),2
same,Day white SCL 1st seen,[6]; 20 mg/L (Table 9),4
same,No. black SCL on day 10,[6]; 20 mg/L (Table 9),0
same,Day 1 growth in mm,[6]; 40 mg/L (Table 9),16 mm
same,Day growth confluent,[6]; 40 mg/L (Table 9),2
same,No. black SCL on day 10,[6]; 40 mg/L (Table 9),0
same,Day 1 growth in mm,[6]; 40 mg/L (Table 11),19 mm
same,Day growth confluent,[6]; 40 mg/L (Table 11),2
same,No. black SCL on day 10,[6]; 40 mg/L (Table 11),0
same,Day 1 growth in mm,"[6]; 40 mg/L, adjusted to equal amounts of PO3 group (Table 10)",16 mm
same,Day growth confluent,"[6]; 40 mg/L, equal PO3 (Table 10)",2
same,No. black SCL on day 10,"[6]; 40 mg/L, equal PO3 (Table 10)",0
same,Day 1 growth in mm,[6]; 80 mg/L (Table 9),14 mm
same,Day growth confluent,[6]; 80 mg/L (Table 9),3
same,No. black SCL on day 10,[6]; 80 mg/L (Table 9),0
same,Day 1 growth in mm,[6]; 120 mg/L (Table 11),14 mm
same,Day growth confluent,[6]; 120 mg/L (Table 11),3
same,No. black SCL on day 10,[6]; 120 mg/L (Table 11),0
same,Day 1 growth in mm,"[6]; 120 mg/L, adjusted to equal amounts of PO3 group (Table 10)",10 mm
same,Day growth confluent,"[6]; 120 mg/L, equal PO3 (Table 10)",4
same,No. black SCL on day 10,"[6]; 120 mg/L, equal PO3 (Table 10)",0
same,Day 1 growth in mm,[6]; 160 mg/L (Table 9),11 mm
same,Day growth confluent,[6]; 160 mg/L (Table 9),3
same,No. black SCL on day 10,[6]; 160 mg/L (Table 9),0
same,Day 1 growth in mm,[6]; 400 mg/L (Table 11),6 mm
same,No. black SCL on day 10,[6]; 400 mg/L (Table 11),0
same,Day 1 growth in mm,"[6]; 400 mg/L, adjusted to equal amounts of PO3 group (Table 10)",5 mm
same,No. black SCL on day 10,"[6]; 400 mg/L, equal PO3 (Table 10)",0
same,times more active than AMPA at inhibiting black sclerotia formation,[6]; [17],around 30 times
same,times more active than glyphosate at inhibiting black sclerotia formation,[6]; [17],around 20 times
"O=NO [NaNO2, sodium nitrite]","Fungal growth score, spores of B. cinerea",[3]; [18],2
same,"Fungal growth score, spores of B. cinerea",[3]; [19],2
same,"Fungal growth score, spores of B. cinerea",[3]; [20],2
same,"Fungal growth score, spores of B. cinerea",[3]; [21],2
same,"Fungal growth score, spores of B. cinerea",[3]; NaNO2 100 mM + DW (sodium nitrite alone),2
same,sporicidal activity to F. oxysporum spores,"[5]; 100 millimolar sodium nitrite alone, data not shown",sporicidal
same,"Fungal growth score, spores of F. oxysporum",[5]; [18],2
same,"Fungal growth score, spores of F. oxysporum",[5]; [19],2
same,"Fungal growth score, spores of F. oxysporum",[5]; [20],2
same,"Fungal growth score, spores of F. oxysporum",[5]; [21],2
same,"Mean fungal growth (in mm ± SD, n = 2) of black sclerotia after treatment",[7]; NaNO2 30 mM + 0 composition (sodium nitrite alone),41 ± 2 mm and 43 ± 2 mm
same,"scleroticidal effect (words, FIG. 2)","[7]; sodium nitrite alone (0+100), white or black sclerotia",little or no significant scleroticidal effect
